How the values were obtained:
Assay type in all cases: cell-based
[1] = system: Bacillus subtilis MBI-600; assay: Culture of Bacillus subtilis with sporulation-inhibiting substance, 64 hours (Example 1)
Description: Using a 500 ml Erlenmeyer flask (with baffles), each 100 ml of media listed in Table 1 was prepared and then autoclave sterilization was carried out. Glucose was separately sterilized and aseptically mixed in order to avoid Maillard reaction.
(§1) According to the conditions of each test section, the filter-sterilized aqueous solution of each sporulation-inhibiting substance was added aseptically to each medium. One loopful of Bacillus subtilis MBI-600 was taken from a colony grown on a nutrient agar medium, inoculated, and then cultured with shaking at 30° C. and 150 rpm for 64 hours.
(§2) Each of the thus obtained culture liquid was diluted 10-fold with sterile water, and then the bacterial cell concentration (vegetative cells and spores) and the sporulation rate (spore concentration/bacterial cell concentration) were measured using an optical microscope and a bacterial cell counter.

[2] = system: Bacillus thuringiensis NBRC 101235 strain; assay: Culture of Bacillus thuringiensis with sporulation-inhibiting substance, 40 hours (Example 3); conditions: for Bacterial cell concentration / Spore concentration / Sporulation rate: 40 hours culture
Description: Using a 500 ml Erlenmeyer flask (with baffles), each 100 ml of media listed in Table 1 was prepared and then autoclave sterilization was carried out. Note that glucose was separately sterilized and aseptically mixed in order to avoid Maillard reaction.
as §1, with “According to the conditions of each test section, one” for “One”, “thuringiensis NBRC 101235 strain” for “subtilis MBI-600”, “40” for “64”
as §2

[3] = system: Bacillus subtilis MBI-600 strain; assay: Surfactin production by Bacillus subtilis, HPLC of culture supernatant (Example 4)
Description: Using a 500 ml Erlenmeyer flask (with baffles), each 100 ml of media listed in Table 5 was prepared and then autoclave sterilization was carried out. Note that glucose was separately sterilized and aseptically mixed in order to avoid Maillard reaction.
as §1, with “According to the conditions of each test section, one” for “One”, “MBI-600 strain” for “MBI-600”, “rpm.” for “rpm for 64 hours.”
Fifty (50) hours after the start of culture, culture was stopped.
Each of the obtained cultured liquid was centrifuged using a refrigerated centrifuge (TOMY SEIKO Co., Ltd. MX-307) at 10,000 rpm and 20° C. for 30 minutes, thereby collecting a supernatant.
To a solid-phase extraction column (Nihon Waters K.K. Oasis HLB 3 cc (400 mg) LP Extraction Cartridge), 3 ml of 0.1% TFA-containing acetonitrile was added and allowed to pass therethrough, and then 3 ml of 0.1% TFA-containing distilled water was added to pass through the column. Two ml of the thus collected centrifugal supernatant of each culture medium was added to pass through the column, 6 ml of 0.1% TFA-containing distilled water, and then 3 ml of 0.1% TFA-containing acetonitrile/distilled water (20:80, v/v) were allowed to pass through the column in sequence for washing. Next, 3 ml of 0.1% TFA-containing acetonitrile/distilled water (90:10, v/v) was allowed to pass through the column, thereby collecting an eluate. 0.1% TFA-containing acetonitrile/distilled water (90:10, v/v) was added, so that the amount of the collected solution was 4 ml, and then HPLC analysis was conducted under the following conditions.
HPLC: Agilent Technologies, Inc. 1260 Infinity […]
Each medium was compared with the authentic sample in terms of peak area detected at the elution time of 27.6 minutes and that of 28.4 minutes, thereby calculating the surfactin concentration in the culture medium.

[4] = system: Bacillus subtilis MBI-600 strain; assay: Culture of Bacillus subtilis in Table 5 medium with sporulation-inhibiting substance, 50 hours, cell and spore counts (Example 4); conditions: for Bacterial cell concentration: carbon content 18.2 g/L
Description: Using a 500 ml Erlenmeyer flask (with baffles), each 100 ml of media listed in Table 5 was prepared and then autoclave sterilization was carried out. Note that glucose was separately sterilized and aseptically mixed in order to avoid Maillard reaction. According to the conditions of each test section, the filter-sterilized aqueous solution of each sporulation-inhibiting substance was added aseptically to each medium. According to the conditions of each test section, one loopful of Bacillus subtilis MBI-600 strain was taken from a colony grown on a nutrient agar medium, inoculated, and then cultured with shaking at 30° C. and 150 rpm. Fifty (50) hours after the start of culture, culture was stopped.

[5] = 0.1 ppm added, 64 hours culture
[6] = 1.0 ppm added, 64 hours culture

With CC[C@H]1OC(=O)[C@H](C)[C@@H](O[C@H]2C[C@@](C)(OC)[C@@H](O)[C@H](C)O2)[C@H](C)[C@@H](O[C@@H]2O[C@H](C)C[C@H](N(C)C)[C@H]2O)[C@](C)(O)C[C@@H](C)C(=O)[C@H](C)[C@@H](O)[C@]1(C)O [Erythromycin] the “effect of inhibiting sporulation” value ([1]; 0.1 ppm) was “not observed”, the Spore concentration [1, 5] was 2.8e+09 mL⁻¹ and the Sporulation rate [1, 5] was 80%. For the same compound, the Bacterial cell concentration ([1]; 0.1 ppm added, 64 hours culture, carbon content 9.1 g/L) was 3.5e+09 mL⁻¹, the “effect of inhibiting sporulation” value ([1]; 1 ppm) was “observed” and the Bacterial cell concentration [1, 6] was 6.2e+09 mL⁻¹. For the same compound, the Sporulation rate [1, 6] was 0%, the “bacterial cell concentrations as the concentration of the substance increased” value ([1]; trend over tested concentrations) was “tended to increase” and the “bacterial cell concentration and spore concentration” value ([2]; 0.05 ppm) was “tended to increase”. The Bacterial cell concentration ([2]; 0.05 ppm) was 1.5e+09 mL⁻¹, the Spore concentration ([2]; 0.05 ppm) was 1.1e+09 mL⁻¹ and the Sporulation rate ([2]; 0.05 ppm) was 73%. The “effect of inhibiting sporulation” value ([2]; 0.1 ppm) was “confirmed”, the Bacterial cell concentration ([2]; 0.1 ppm) was 2e+09 mL⁻¹ and the Spore concentration ([2]; 0.1 ppm) was 3e+08 mL⁻¹. For the same compound, the Sporulation rate ([2]; 0.1 ppm) was 16%, the Surfactin concentration ([3]; 0.1 ppm and 0.2 ppm) was “tended to increase” and the Surfactin concentration ([3]; 0.1 ppm, 50 hours culture, in the culture medium) was 58.5 ppm. For the same compound, the Surfactin concentration ([3]; 0.2 ppm, 50 hours culture, in the culture medium) was 75.7 ppm, the Spore concentration ([4]; 0.1 ppm and 0.2 ppm) was “tended to increase” and the Spore concentration ([4]; 0.1 ppm, 50 hours culture) was 8e+09 mL⁻¹. It also gave a Sporulation rate ([4]; 0.1 ppm, 50 hours culture) of 99%, a Bacterial cell concentration ([4]; 0.1 ppm, 50 hours culture) of 8.1e+09 mL⁻¹ and a Spore concentration ([4]; 0.2 ppm, 50 hours culture) of 6.9e+09 mL⁻¹. For the same compound, the Sporulation rate ([4]; 0.2 ppm, 50 hours culture) was 100% and the Bacterial cell concentration ([4]; 0.2 ppm, 50 hours culture) was 6.9e+09 mL⁻¹.

Source: patent publication US11512280B2, “Method for culturing spore-forming bacteria, and method for producing useful substance” (priority 2016, dated 2022)
